# Assay results published in patent US11141488B2, “Compositions comprising biodegradable copolymers for prolonged local release of an antibiotic” (DEXCEL PHARMA TECHNOLOGIES LTD., priority 2017, dated 2021).
# Where two headings read alike, the source gives them in different places.
# Key:
# [1] = Local and systemic gentamicin levels after single intramuscular injection in rabbits; type: in vivo, New Zealand White (NZW) rabbits; conditions: rabbit muscle
# Protocol: Prior to injection, a skin incision was made in order to expose the muscle. The site of injection was marked by a non-absorbable suture at the upper layer of the muscle. […] Following injection, the skin was closed using surgical clips. The procedure was performed under general anesthesia. Animals were clinically observed for up to 8 weeks post-dosing, if applicable.
# Tissue collection was performed by resecting the right paravertebral muscle, transversally slicing into ˜1 cm thick serial sections (total of 7 serial sections), when the injection site was located at the core center of the central section. […] At the injection site, one sample ( ? ) was taken.
# [2] = rat skin tissue
# Protocol: The site of injection was located at the right mid trunk area close to the spinal cord of the animals. The fur covering the flank and dorsal areas was removed by close clipping using an electric clipper up to 96 hours prior to dosing. Injections were performed using 18-19 G needle. The procedure was performed under general anesthesia. Blood samples were collected at 15 minutes, 30 minutes, 45 minutes, 1 hour, 1.5 hours, 2 hours, 4 hours, 6 hours, 8 hours, 24 hours, 48 hours, 72 hours, 1 week, 2 weeks, 3 weeks, 4 weeks, 6 weeks, and 8 weeks.
# Blood samples were processed by centrifugation (3,000 G for 15 minutes at room temperature). Following centrifugation, plasma was removed into plastic tubes, followed by freezing using liquid nitrogen to (−70)-(−80)° C. for subsequent analysis.
# Tissue collection was performed following removal of the dorsal trunk area by close clipping using an electrical clipper, if needed. The skin at the dorsal site of the animal was removed and pinned to a cork board. […] The injection site A is marked by a circular area of 1 cm in diameter (1×0.8 cm diameter sample). Circular strips B, C, and D each indicate 0.5 cm strips in width encircling circle (at least 4 samples were taken from each strip).
# Thereafter, the samples were injected into a LC-MS/MS system (3 μl for samples at a concentration range of 2.5-170 μg/ml and 20 μl for samples at a concentration range of 0.075-2.5 μg/ml). […] Thereafter, 20 μl of the samples were injected into a LC-MS/MS system.
# Sample concentrations were obtained by interpolation from the run defined calibration curve. The raw data was processed using AB SCIEX 1.5.1 software.
# [3] = parenteral administration, levels exceeded for prolonged periods of time; cited from earlier work
substance,measurement,setting,value
gentamicin,"local concentration of gentamicin, area B","[1]; area B of FIG. 4, 24 hours after single 0.2 ml IM injection of RA:SA (70:30) copolymer with 20 wt % gentamicin sulfate",46 µg/mL
same,"local concentration of gentamicin, area C","[1]; area C of FIG. 4, 24 hours after single 0.2 ml IM injection of RA:SA (70:30) copolymer with 20 wt % gentamicin sulfate",3 µg/mL
same,"local concentration of gentamicin, area D","[1]; area D of FIG. 4, 24 hours after single 0.2 ml IM injection of RA:SA (70:30) copolymer with 20 wt % gentamicin sulfate",6 µg/mL
same,"local concentration of gentamicin, area A","[1]; injection site, 24 hours after single 0.2 ml IM injection of RA:SA (70:30) copolymer with 20 wt % gentamicin sulfate",765 µg/mL
same,"local concentration of gentamicin, area A","[2]; injection site, 24 hours after single 0.2 ml SC injection of RA:SA (70:30) copolymer with 20 wt % gentamicin sulfate",362 µg/mL
same,"local concentration of gentamicin, area B","[2]; strip B of FIG. 8, 24 hours after single 0.2 ml SC injection of RA:SA (70:30) copolymer with 20 wt % gentamicin sulfate",218 µg/mL
same,"local concentration of gentamicin, area C","[2]; strip C of FIG. 8, 24 hours after single 0.2 ml SC injection of RA:SA (70:30) copolymer with 20 wt % gentamicin sulfate",43 µg/mL
same,"local concentration of gentamicin, area D","[2]; strip D of FIG. 8, 24 hours after single 0.2 ml SC injection of RA:SA (70:30) copolymer with 20 wt % gentamicin sulfate",31 µg/mL
same,systemic levels above which ototoxicity and nephrotoxicity are induced,[3],10 to 12 µg/mL
